Assays:
HT1080 cells = experiment: Cellular assay for IDH1m inhibitors: inhibition of 2-HG production (LC-MS, 48 hours) in HT1080 cells; type: cell-based; conditions: Homo sapiens, HT-1080; inhibition of 2-HG production, HT1080 cells; read-out: HT1080 IC50
In short: (§1)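 Cells were seeded at 5000/well in DMEM with 10% FBS, incubated overnight, then treated with compound (0.2% DMSO final) for 48 h at 37° C. Medium 2-HG was quantified by LC-MS. IC50 is the concentration reducing 2-HG by 50% versus DMSO control, and CellTiter-Glo viability was read at 72 h.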

IDH1 R132H = IDH1 R132H (Homo sapiens, UniProt O75874, R132H); experiment: Assay for IDH1 R132H inhibitors (NADPH/aKG, resazurin detection); type: biochemical; conditions: enzyme assay of Example 12; read-out: IDH1R132H IC50
Sequence of IDH1 R132H (O75874 whole entry R132H): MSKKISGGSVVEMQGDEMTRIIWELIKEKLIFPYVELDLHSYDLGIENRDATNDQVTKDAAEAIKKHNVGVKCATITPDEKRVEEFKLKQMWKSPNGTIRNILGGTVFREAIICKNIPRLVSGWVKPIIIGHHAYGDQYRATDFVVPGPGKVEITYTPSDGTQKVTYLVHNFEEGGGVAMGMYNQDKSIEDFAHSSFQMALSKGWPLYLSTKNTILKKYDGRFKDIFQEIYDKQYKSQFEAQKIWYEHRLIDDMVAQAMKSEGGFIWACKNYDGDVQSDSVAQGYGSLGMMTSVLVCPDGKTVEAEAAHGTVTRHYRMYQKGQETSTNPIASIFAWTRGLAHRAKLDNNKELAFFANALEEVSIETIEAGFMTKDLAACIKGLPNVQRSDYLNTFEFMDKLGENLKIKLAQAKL
In short: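 Compound added to substrate mix (8 uM NADPH, 2 mM aKG), then enzyme mix (0.2 μg/ml IDH1 R132H); 50 min RT in 20 mM Tris pH 7.5, 150 mM NaCl, 10 mM MgCl2, 0.03% BSA. Resazurin detection mix (30 μM) 5 min RT; resorufin fluorescence Ex544/Em590.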

U87MG cells = experiment: Cellular assay for IDH1m inhibitors: inhibition of 2-HG production (LC-MS, 48 hours) in U87MG cells; type: cell-based; conditions: Homo sapiens, U-87 MG, inhibition of 2-HG production, U87R132H cells; read-out: U87R132H IC50
In short: as §1

SMILES	IC50 (HT1080 cells)	IC50 (IDH1 R132H)	IC50 (U87MG cells)
C=Cc1cc(-c2cc(C#N)c(N3CCN(C(=O)CCOC)[C@H](C(C)C)C3)nc2C2CC2)c2ccncc2n1 [Compound 611, (R)-6-cyclopropyl-2-(3-isopropyl-4-(3-methoxypropanoyl)piperazin-1-yl)-5-(2-vinyl-1,7-naphthyridin-4-yl)nicotinonitrile]	< 500 nM	< 500 nM	< 500 nM
C=CC(=O)N1CC=C(c2cc(C#N)c(N3CCN(C(=O)C4CC4)[C@H](C)C3)nc2C2CC2)C1 [Compound 612, (R)-5-(1-acryloyl-2,5-dihydro-1H-pyrrol-3-yl)-2-(4-(cyclopropanecarbonyl)-3-methylpiperazin-1-yl)-6-cyclopropylnicotinonitrile]	< 500 nM	< 500 nM	< 500 nM
C=Cc1cc(-c2cc(C#N)c(N3CCN(C(=O)C4CC4)[C@H](C4CC4)C3)nc2C2CC2)cnn1 [Compound 613, (R)-2-(4-(cyclopropanecarbonyl)-3-cyclopropylpiperazin-1-yl)-6-cyclopropyl-5-(6-vinylpyridazin-4-yl)nicotinonitrile]	< 500 nM	< 500 nM	< 500 nM
C=Cc1cc(-c2cc(C#N)c(N3CCN(C(=O)CCOC)[C@H](C)C3)nc2C2CC2)cnn1 [Compound 615, (R)-6-cyclopropyl-2-(4-(3-methoxypropanoyl)-3-methylpiperazin-1-yl)-5-(6-vinylpyridazin-4-yl)nicotinonitrile]	< 500 nM	< 500 nM	< 500 nM
C=Cc1cc(Nc2cc(C#N)c(N3CCN(C(=O)CCO)[C@H](C)C3)nc2C2CC2)ncn1 [Compound 617, (R)-6-cyclopropyl-2-(4-(3-hydroxypropanoyl)-3-methylpiperazin-1-yl)-5-(6-vinylpyrimidin-4-ylamino)nicotinonitrile]	< 500 nM	< 500 nM	< 500 nM
C=Cc1cnc2c(-c3cc(C#N)c(N4CCN(C(=O)CCO)[C@H](C)C4)nc3C3CC3)cccc2n1 [Compound 618, (R)-6-cyclopropyl-2-(4-(3-hydroxypropanoyl)-3-methylpiperazin-1-yl)-5-(2-vinylquinoxalin-5-yl)nicotinonitrile]	< 500 nM	< 500 nM	< 500 nM
C=Cc1cc(-c2cc(C#N)c(N3CCN(C(=O)CCO)[C@H](C)C3)nc2C2CC2)ncn1 [Compound 621, (R)-6-cyclopropyl-2-(4-(3-hydroxypropanoyl)-3-methylpiperazin-1-yl)-5-(6-vinylpyrimidin-4-yl)nicotinonitrile]	< 500 nM	< 500 nM	500 to 1000 nM
C=Cc1cc(-c2cc(C#N)c(N3CCN(C(=O)CCO)[C@H](C)C3)nc2C2CC2)c2cccnc2n1 [Compound 625, (R)-6-cyclopropyl-2-(4-(3-hydroxypropanoyl)-3-methylpiperazin-1-yl)-5-(2-vinyl-1,8-naphthyridin-4-yl)nicotinonitrile]	< 500 nM	< 500 nM	< 500 nM
C=Cc1cc(-c2cc(C#N)c(N3CCN(C(=O)CCOC)[C@H](C(C)C)C3)nc2C2CC2)c2cccnc2n1 [Compound 626, (R)-6-cyclopropyl-2-(3-isopropyl-4-(3-methoxypropanoyl)piperazin-1-yl)-5-(2-vinyl-1,8-naphthyridin-4-yl)nicotinonitrile]	< 500 nM	< 500 nM	< 500 nM
C=Cc1cc(-c2c(C3CC3)nc(N3CCN(C(=O)CCOC)[C@H](C)C3)c(C#N)c2C)ncn1 [Compound 627, (R)-6-cyclopropyl-2-(4-(3-methoxypropanoyl)-3-methylpiperazin-1-yl)-4-methyl-5-(6-vinylpyrimidin-4-yl)nicotinonitrile]	< 500 nM	< 500 nM	< 500 nM
C=Cc1cc(-c2c(C3CC3)nc(N3CCN(C(=O)CCOC)[C@H](C)C3)c(C#N)c2C)ccn1 [Compound 628, (R)-2-cyclopropyl-6-(4-(3-methoxypropanoyl)-3-methylpiperazin-1-yl)-4-methyl-2′-vinyl-[3,4′-bipyridine]-5-carbonitrile]	< 500 nM	< 500 nM	< 500 nM
C=Cc1cc(-c2cc(C#N)c(N3CCN(C(=O)CCO)[C@H](C(C)C)C3)nc2C2CC2)c2cccnc2n1 [Compound 629, (R)-6-cyclopropyl-2-(4-(3-hydroxypropanoyl)-3-isopropylpiperazin-1-yl)-5-(2-vinyl-1,8-naphthyridin-4-yl)nicotinonitrile]	< 500 nM	< 500 nM	< 500 nM
C=Cc1cc(-c2cc(C#N)c(N3CCN(C(=O)CCOC)[C@H](C(C)C)C3)nc2C2CC2)ccn1 [Compound 631, (R)-2-cyclopropyl-6-(3-isopropyl-4-(3-methoxypropanoyl)piperazin-1-yl)-2′-vinyl-3,4′-bipyridine-5-carbonitrile]	< 500 nM	< 500 nM	< 500 nM
C=Cc1ccc2c(-c3cc(C#N)c(N4CCN(C(=O)CCO)[C@H](C)C4)nc3C3CC3)cccc2n1 [Compound 633, (R)-6-cyclopropyl-2-(4-(3-hydroxypropanoyl)-3-methylpiperazin-1-yl)-5-(2-vinylquinolin-5-yl)nicotinonitrile]	< 500 nM	< 500 nM	< 500 nM
C=Cc1ncc2c(-c3cc(C#N)c(N4CCN(C(=O)CCOC)[C@H](C(C)C)C4)nc3C3CC3)cccc2n1 [Compound 634, (R)-6-cyclopropyl-2-(3-isopropyl-4-(3-methoxypropanoyl)piperazin-1-yl)-5-(2-vinylquinazolin-5-yl)nicotinonitrile]	< 500 nM	< 500 nM	< 500 nM
C=Cc1ncc2c(-c3cc(C#N)c(N4CCN(C(=O)CCOC)[C@H](C5CC5)C4)nc3C3CC3)cccc2n1 [Compound 635, (R)-6-cyclopropyl-2-(3-cyclopropyl-4-(3-methoxypropanoyl)piperazin-1-yl)-5-(2-vinylquinazolin-5-yl)nicotinonitrile]	< 500 nM	< 500 nM	< 500 nM
C=Cc1ncc2c(-c3cc(C#N)c(N4CCN(C(=O)C5CC5)[C@H](C5CC5)C4)nc3C3CC3)cccc2n1 [Compound 636, (R)-2-(4-(cyclopropanecarbonyl)-3-cyclopropylpiperazin-1-yl)-6-cyclopropyl-5-(2-vinylquinazolin-5-yl)nicotinonitrile]	< 500 nM	< 500 nM	< 500 nM
C=Cc1cc(-c2cc(C#N)c(N3CCN(C(=O)CCOC)[C@H](C4CC4)C3)nc2C2CC2)ncn1 [Compound 638, (R)-6-cyclopropyl-2-(3-cyclopropyl-4-(3-methoxypropanoyl)piperazin-1-yl)-5-(6-vinylpyrimidin-4-yl)nicotinonitrile]	< 500 nM	< 500 nM	< 500 nM
C=Cc1cc(-c2cc(C#N)c(N3CCN(C(=O)CCOC)[C@H](C(C)C)C3)nc2C2CC2)ncn1 [Compound 639, (R)-6-cyclopropyl-2-(3-isopropyl-4-(3-methoxypropanoyl)piperazin-1-yl)-5-(6-vinylpyrimidin-4-yl)nicotinonitrile]	< 500 nM	< 500 nM	< 500 nM
C=Cc1cc(Nc2cc(C#N)c(N3CCN(C(=O)CCOC)[C@H](C)C3)nc2C2CC2)ccn1 [Compound 642, (R)-6-cyclopropyl-2-(4-(3-methoxypropanoyl)-3-methylpiperazin-1-yl)-5-((2-vinylpyridin-4-yl)amino)nicotinonitrile]	< 500 nM	< 500 nM	< 500 nM
COCCC(=O)N1CCN(c2nc(C3CC3)c(Nc3ccnc(Cl)c3)cc2C#N)C[C@H]1C [Compound 643, (R)-5-((2-chloropyridin-4-yl)amino)-6-cyclopropyl-2-(4-(3-methoxypropanoyl)-3-methylpiperazin-1-yl)nicotinonitrile]	< 500 nM	< 500 nM	500 to 1000 nM
C=Cc1cnc2c(-c3cc(C#N)c(N4CCN(C(=O)CCOC)[C@H](C5CC5)C4)nc3C3CC3)cccc2n1 [Compound 644, (R)-6-cyclopropyl-2-(3-cyclopropyl-4-(3-methoxypropanoyl)piperazin-1-yl)-5-(2-vinylquinoxalin-5-yl)nicotinonitrile]	< 500 nM	< 500 nM	< 500 nM
C=Cc1cc(-c2cc(C#N)c(N3CCN(C(=O)CCOC)[C@H](C4CC4)C3)nc2C2CC2)c2cccnc2n1 [Compound 645, (R)-6-cyclopropyl-2-(3-cyclopropyl-4-(3-methoxypropanoyl)piperazin-1-yl)-5-(2-vinyl-1,8-naphthyridin-4-yl)nicotinonitrile]	< 500 nM	< 500 nM	< 500 nM
C=Cc1ccnc(Nc2cc(C#N)c(N3CCN(C(=O)CCOC)[C@H](C)C3)nc2C2CC2)c1 [Compound 647, (R)-6-cyclopropyl-2-(4-(3-methoxypropanoyl)-3-methylpiperazin-1-yl)-5-((4-vinylpyridin-2-yl)amino)nicotinonitrile]	< 500 nM	< 500 nM	< 500 nM
C=Cc1cc(-c2cc(C#N)c(N3CCN(C(=O)C[C@H]4CCO4)[C@H](C)C3)nc2C2CC2)ccn1 [Compound 648, 2-cyclopropyl-6-((R)-3-methyl-4-(2-((R)-oxetan-2-yl)acetyl)piperazin-1-yl)-2′-vinyl-[3,4′-bipyridine]-5-carbonitrile]	< 500 nM	< 500 nM	< 500 nM
